These are literature values, as cited in patent US9498424B2, “Active mixtures of acylated oligopeptides and troxerutin” (Symrise AG, priority 2013, dated 2016).

Structures are written as SMILES.

The subject of the data set is mice.

For `C[C@@H]1O[C@@H](OC[C@H]2O[C@@H](Oc3c(-c4ccc(OCCO)c(OCCO)c4)oc4cc(OCCO)cc(O)c4c3=O)[C@H](O)[C@@H](O)[C@@H]2O)[C@H](O)[C@H](O)[C@H]1O` [Troxerutin], the CNS insulin resistance entry is reported as “reverse CNS insulin resistance” and the “reactive oxygen species induced by a high-cholesterol diet” value is listed as “reduce reactive oxygen species”.
